Assay type in all cases: in vivo
For test [1], the system named is Italian ryegrass (Lolium multiflorum). In words: (16) Herbicidal effect test (comparative test), pot, spray at 2.5 to 3.0 leaf stage. The conditions noted are these: 4th day after spraying. The source says: (§1) [formula] • X: growth inhibition rate when treated with α (g/ha) of compound A, • Y: growth inhibition rate when treated with β (g/ha) of compound B, • E: growth inhibition rate expected when treated with α (g/ha) of compound A and β (g/ha) of compound B (expected value).
Upland soil was put in a 1/1,000,000 hectare pot, and seeds of Italian ryegrass (Lolium multiflorum) were sown. When Italian ryegrass reached 2.5 to 3.0 leaf stage, a water-based suspension containing tiafenacil as the active ingredient, prepared by a conventional method for preparing a water-based suspension, a water-based suspension containing saflufenacil as the active ingredient (tradename: Sharpen, manufactured by BASF), a wettable powder containing fomesafen as the active ingredient, prepared by a conventional method for preparing a wettable powder, an emulsifiable concentrate containing fluthiacet-methyl as the active ingredient (tradename: Attackshot emulsifiable concentrate, manufactured by MARUWA Biochemical Co., Ltd.), a dry flowable containing carfentrazone-ethyl as the active ingredient (tradename: Task DF, manufactured by ISHIHARA SANGYO KAISHA, LTD.) or a water-based suspension containing pyraflufen-ethyl as the active ingredient (tradename: ECOPART flowable, manufactured by NIHON NOHYAKU CO., LTD.), and an emulsifiable concentrate containing S-metolachlor as the active ingredient (tradename: Dual Gold, manufactured by Syngenta) or a wettable powder containing metribuzin as the active ingredient (tradename: SENCOR wettable powder, manufactured by Bayer Crop Science), were diluted with water (in an amount corresponding to 200 liter per hectare) containing 0.5 vol % of an agricultural spreader (tradename: Destiny HC, manufactured by Winfield Solutions, LLC.) and sprayed by a small spray gun (model: W-101-132G, manufactured by ANEST IWATA Corporation). On the 4th day after spraying, the state of growth of the Italian ryegrass was visually observed, and the growth inhibition rate (%) was obtained in accordance with the evaluation standards described in the above (1) herbicidal effect test, and the results are shown in Table 16. Further, the expected value of the growth inhibition rate (%) was calculated in accordance with the Colby's formula described in the above (1) herbicidal effect test, and the results are also shown in Table 16.

The test system of test [2] is waterhemp (Amaranthus tuberculatus). The test is described as follows: (13) Herbicidal effect test, pot, spray at 5.0 to 8.0 leaf stage. To be noted: 4th day after spraying.
From the text: as §1
Upland soil was put in a 1/1,000,000 hectare pot, and seeds of waterhemp (Amaranthus tuberculatus) were sown. When the waterhemp reached 5.0 to 8.0 leaf stage, a water-based suspension containing tiafenacil as the active ingredient, prepared by a conventional method for preparing a water-based suspension, and a wettable powder containing tri-allate as the active ingredient, prepared by a conventional method for preparing a wettable powder, an emulsifiable concentrate containing pethoxamid as the active ingredient (tradename: Successor 600, manufactured by Stähler Suisse SA) or an emulsifiable concentrate containing dimethenamid-P as the active ingredient (tradename: Fieldstar P emulsifiable concentrate, manufactured by BASF) were diluted with water (in an amount corresponding to 200 liter per hectare) containing 0.5 vol % of an agricultural spreader (tradename: Destiny HC, manufactured by Winfield Solutions, LLC.) and sprayed by a small spray gun (model: W-101-132G, manufactured by ANEST IWATA Corporation). On the 4th day after spraying, the state of growth of the waterhemp was visually observed, and the growth inhibition rate (%) was obtained in accordance with the evaluation standards described in the above (1) herbicidal effect test, and the results are shown in Table 13. Further, the expected value of the growth inhibition rate (%) was calculated in accordance with the Colby's formula described in the above (1) herbicidal effect test, and the results are also shown in Table 13.

Test [3] concerns Italian ryegrass (Lolium multiflorum). In words: (7) Herbicidal effect test, pot, spray at 2.8 to 3.0 leaf stage. To be noted: 7th day after spraying.
From the text: as §1
Upland soil was put in a 1/1,000,000 hectare pot, and seeds of Italian ryegrass (Lolium multiflorum) were sown. When Italian ryegrass reached 2.8 to 3.0 leaf stage, a water-based suspension containing tiafenacil as the active ingredient, prepared by a conventional method for preparing a water-based suspension, and an emulsifiable concentrate containing pethoxamid as the active ingredient (tradename: Successor 600, manufactured by Stahler Suisse SA) or an emulsifiable concentrate containing dimethenamid-P as the active ingredient (tradename: Fieldstar P emulsifiable concentrate, manufactured by BASF) were diluted with water (in an amount corresponding to 200 liter per hectare) containing 0.5 vol % of an agricultural spreader (tradename: Destiny HC, manufactured by Winfield Solutions, LLC.) and sprayed by a small spray gun (model: W-101-132G, manufactured by ANEST IWATA Corporation). On the 7th day after spraying, the state of growth of the Italian ryegrass was visually observed, and the growth inhibition rate (%) was obtained in accordance with the evaluation standards described in the above (1) herbicidal effect test, and the results are shown in Table 7. Further, the expected value of the growth inhibition rate (%) was calculated in accordance with the Colby's formula described in the above (1) herbicidal effect test, and the results are also shown in Table 7.

For test [4] the test system is unchanged. The test is described as follows: (5) Herbicidal effect test, pot, spray at 3.0 to 3.3 leaf stage. The conditions noted are these: 6th day after spraying.
From the text: as §1
Upland soil was put in a 1/1,000,000 hectare pot, and seeds of Italian ryegrass (Lolium multiflorum) were sown. When the Italian ryegrass reached 3.0 to 3.3 leaf stage, a water-based suspension containing tiafenacil as the active ingredient, prepared by a conventional method for preparing a water-based suspension, and a wettable powder containing metribuzin as the active ingredient (tradename: SENCOR wettable powder, manufactured by Bayer Crop Science), water dispersible granules containing pyroxasulfone as the active ingredient (tradename: Sakura, manufactured by Bayer Crop Science) or a wettable powder containing tri-allate as the active ingredient, prepared by a conventional method for preparing a wettable powder, were diluted with water (in an amount corresponding to 200 liter per hectare) containing 0.5 vol % of an agricultural spreader (tradename: Destiny HC, manufactured by Winfield Solutions, LLC.) and sprayed by a small spray gun (model: W-101-132G, manufactured by ANEST IWATA Corporation). On the 6th day after spraying, the state of growth of the Italian ryegrass was visually observed, and the growth inhibition rate (%) was obtained in accordance with the evaluation standards described in the above (1) herbicidal effect test, and the results are shown in Table 5. Further, the expected value of the growth inhibition rate (%) was calculated in accordance with the Colby's formula described in the above (1) herbicidal effect test, and the results are also shown in Table 5.

By inhibition is commonly meant the relative decrease from the control value, in per cent.

As for `CCc1cccc(C)c1N(C(=O)CCl)[C@@H](C)COC` [S-metolachlor], the “Growth inhibition rate (%) Measured value” in test [1] (Dose 750 g/ha) amounted to 3%.

For the compound `COC[C@H](C)N(C(=O)CCl)c1c(C)csc1C` [dimethenamid-P], the “Growth inhibition rate (%) Measured value” in test [2] (Dose 60 g/ha) came out at 0%; in test [2] (Dose 375 g/ha), 0%; in test [2] (Dose 750 g/ha), 0%; in test [3] (Dose 60 g/ha), 0%; in test [3] (Dose 120 g/ha) it was 3%; in test [3] (Dose 240 g/ha) it was 8%. Besides, the “Growth inhibition rate (%) Measured value” in test [3] (Dose 750 g/ha) turned out to be 12%; in test [3] (Dose 1500 g/ha), 15%.

In the case of `CSc1nnc(C(C)(C)C)c(=O)n1N` [metribuzin], the inhibition at 18.75 g/ha in test [1] (Lolium multiflorum, Dose 18.75 g/ha, read-out: Growth inhibition rate (%) Measured value) was found to be 7%. Besides, the inhibition at 137.5 g/ha in test [4] (Lolium multiflorum, Dose 137.5 g/ha, read-out: Growth inhibition rate (%) Measured value) came out at 20%. Further, in test [4] (Lolium multiflorum, Dose 275 g/ha, read-out: Growth inhibition rate (%) Measured value), the inhibition at 275 g/ha is 30%. Moreover, the inhibition at 550 g/ha in test [4] (Lolium multiflorum, Dose 550 g/ha, read-out: Growth inhibition rate (%) Measured value) was determined as 30%.

`CCOCCN(C(=O)CCl)C(=C(C)C)c1ccccc1` [pethoxamid]: the “Growth inhibition rate (%) Measured value” in test [2] (Dose 93.8 g/ha) is 0%; in test [2] (Dose 375 g/ha) it was 0%; in test [2] (Dose 750 g/ha) it was 0%; in test [3] (Dose 93.75 g/ha), 0%; in test [3] (Dose 187.5 g/ha), 0%; in test [3] (Dose 375 g/ha), 7%. The “Growth inhibition rate (%) Measured value” in test [3] (Dose 750 g/ha) is 7%; in test [3] (Dose 1500 g/ha), 12%.

For `Cn1nc(C(F)(F)F)c(CS(=O)(=O)C2=NOC(C)(C)C2)c1OC(F)F` [pyroxasulfone], in test [4] (Lolium multiflorum, Dose 7.5 g/ha, read-out: Growth inhibition rate (%) Measured value), the inhibition at 7.5 g/ha worked out at 0%. For the same compound, in test [4] (Lolium multiflorum, Dose 15 g/ha, read-out: Growth inhibition rate (%) Measured value), the inhibition at 15 g/ha is 3%. The inhibition at 62.5 g/ha in test [4] (Lolium multiflorum, Dose 62.5 g/ha, read-out: Growth inhibition rate (%) Measured value) is 8%. Moreover, the inhibition at 125 g/ha in test [4] (Lolium multiflorum, Dose 125 g/ha, read-out: Growth inhibition rate (%) Measured value) was 17%. Besides, in test [4] (Lolium multiflorum, Dose 250 g/ha, read-out: Growth inhibition rate (%) Measured value), the inhibition at 250 g/ha was 23%.

For `COC(=O)CCNC(=O)C(C)Sc1cc(-n2c(=O)cc(C(F)(F)F)n(C)c2=O)c(F)cc1Cl` (centres unmarked) [tiafenacil], the “Growth inhibition rate (%) Measured value” in test [1] (Dose 12.5 g/ha) stood at 38%; in test [2] (Dose 6.25 g/ha) it was 73%; in test [3] (Dose 6.25 g/ha) it was 15%; in test [3] (Dose 12.5 g/ha) it was 37%; in test [3] (Dose 25 g/ha), 33%; in test [4] (Dose 3.13 g/ha) it was 17%. The entries for the “Growth inhibition rate (%) Measured value” in test [4] (Dose 6.25 g/ha) and in test [4] (Dose 12.5 g/ha) were 33% and 60%, respectively.

Take `CC(C)N(C(=O)SCC(Cl)=C(Cl)Cl)C(C)C` [tri-allate]: the inhibition at 75 g/ha was determined as 0% in test [2] (Amaranthus tuberculatus, Dose 75 g/ha, read-out: Growth inhibition rate (%) Measured value) and 0% in test [4] (Lolium multiflorum, Dose 75 g/ha, read-out: Growth inhibition rate (%) Measured value). Moreover, the inhibition at 625 g/ha in test [2] (Amaranthus tuberculatus, Dose 625 g/ha, read-out: Growth inhibition rate (%) Measured value) worked out at 0%; in test [4] (Lolium multiflorum, Dose 625 g/ha, read-out: Growth inhibition rate (%) Measured value), 2%. Besides, the inhibition at 1250 g/ha came to 0% in test [2] (Amaranthus tuberculatus, Dose 1250 g/ha, read-out: Growth inhibition rate (%) Measured value) and 5% in test [4] (Lolium multiflorum, Dose 1250 g/ha, read-out: Growth inhibition rate (%) Measured value). In addition, the inhibition at 150 g/ha in test [4] (Lolium multiflorum, Dose 150 g/ha, read-out: Growth inhibition rate (%) Measured value) stood at 0%.
